Laboratory results published in ChEMBL document CHEMBL3507680, “University of Dundee, Gates Library screen for HepG2 cell viability”.

Test: Human HepG2 cell viability assay in 384 well format
Assay type: toxicity, cell-based
Set-up: dose 125 nL, time 70.5 hour; cytotoxicity at 70.5 h: concentration not given beside the values
Conditions: HepG2 cells, read-out: Inhibition

Structure (SMILES) | cytotoxicity at 70.5 h
Cc1ccccc1C1CCN(C(=O)CCNC(=O)C(C)(C)C)C1 (centres undefined) | -1.33%
CC(Cc1c(F)cccc1F)NC(=O)CSCC(N)=O (centres undefined) | 12.1%
Cc1ccc(NS(=O)(=O)c2cccc(C#N)c2)c(CN(C)C)c1 | 0.936%
Cc1ccccc1CNC(Cn1cncn1)c1ccccc1 (centres undefined) | 1.75%
CCSCCC(C)N(C)C(=O)c1cc(C)on1 (centres undefined) | -3.26%
Cc1cc(C(=O)NC(CC(C)C)C(=O)Nc2cc[nH]n2)c(C)o1 (centres undefined) | 0.859%
CC(C)CC(NC(=O)c1cnn(C)c1)C(=O)Nc1cc[nH]n1 (centres undefined) | 0.0249%
N#Cc1c(Cl)nsc1NCc1ccc(N2CCC(CO)CC2)cc1 | -0.689%
CC(C)(C)n1ncc2c(=O)[nH]c(N3CCC4(CCCCC4)C3)nc21 | -2.75%
Cc1nn(C)cc1C(=O)NC(CC(C)C)C(=O)Nc1cc[nH]n1 (centres undefined) | 12.6%
COCCOCCC(=O)N1CCC(c2ccccc2C)C1 (centres undefined) | -4.21%
CCSCCC(C)N(C)C(=O)c1cc(C)no1 (centres undefined) | -2.61%
Cc1ccc(NCc2ccc(C#N)cc2)c(CN(C)C)c1 | 15.8%
Cc1ccc(S(=O)(=O)NCCNC(=O)c2cncnc2C)cc1 | -2.92%
Fc1cc(CN2CCOC3(CCOCC3)C2)ccc1OC(F)F | -3.49%
COc1cc(C(C)NCc2ncccc2C)ccc1SC(F)F (centres undefined) | 52.4%
CN(C)C1Cc2ccccc2N(S(=O)(=O)c2ccccc2C#N)C1 (centres undefined) | 34.1%
COc1cc(OC)cc(N2CCC(NCc3occc3C)C2=O)c1 (centres undefined) | 31%
COc1cc(OC)cc(N2CCC(NCc3ccsc3)C2=O)c1 (centres undefined) | 33.1%
NC(=O)CCN(C(=O)CSc1ccc(F)cc1)c1ccc(F)cc1 | 30.2%
COc1ccc(N(CCC(N)=O)C(=O)CSc2ccc(Cl)cc2)cc1 | -0.942%

Structure (SMILES) | cytotoxicity at 70.5 h
O=C(Cn1ccc(=O)[nH]c1=O)Nc1ccccc1F | -4.99%
O=C1CN(C(=O)c2cc(Cl)ccc2F)c2ccccc2N1 | 37.1%
CC(C)Oc1ccc(CNC(=O)C2CCS(=O)(=O)C2)cn1 (centres undefined) | 26.3%
COc1ccc(N(CCC(N)=O)C(=O)CSc2ccc(F)c(F)c2)cc1 | -12.7%
COc1ccc(C(=O)NCC(=O)N(Cc2ccsc2)C2CC2)cc1OC | 30.2%
COc1ccc(CC(=O)N2CCC(c3nnc4n3CCC4)CC2)cc1F | -5.72%
Cc1cc(C)c(CNC(=O)N2CCC(N3CCCC3)CC2)c(=O)[nH]1 | -7.61%
Cc1ccc(CC(=O)N2CCC(c3nnc4n3CCC4)CC2)cc1 | -8.21%
Cc1cc(C)c(CNC(=O)N2CCC(N3CCNC3=O)CC2)c(=O)[nH]1 | -10.5%
CC(=O)N1CCN(C(=O)NCc2ccccc2Cn2ccnc2)CC1 | -14.1%
O=C(c1cnc(NCCC2CCCO2)c(Cl)c1)N1CCCCC1 (centres undefined) | -10%
CCn1cnnc1C1CCN(C(=O)Cc2ccc(OC)c(F)c2)CC1 | -7.22%
O=C(NCc1ccccc1Cn1ccnc1)N1CCOCC1 | -9.82%
COc1ccccc1S(=O)(=O)N1CC(N(C)C)Cc2ccccc21 (centres undefined) | 30.7%
COc1cc(CCNC(=O)NCCC2CCCO2)ccc1C (centres undefined) | -9.73%
CC(Oc1ccc(OCc2ncc(C(C)C)o2)cc1)C(N)=O (centres undefined) | -8.33%
CCc1nsc(N2CCC3(CC2)OCCO3)n1 | -8.49%
CC(N1CCN(C(=O)NCc2cccc(C#N)c2)CC1)C(F)(F)F (centres undefined) | -0.642%
COCc1nc(C)cc(Nc2ccc3c(c2)CC(=O)N3)n1 | -7.41%
CCc1cnc(CN2CCCC(c3cc(C)[nH]n3)C2)o1 (centres undefined) | -8.59%
O=C(NCCc1ccn(-c2ccc(F)cc2)n1)C1CCCO1 (centres undefined) | -5.68%

Structure (SMILES) | cytotoxicity at 70.5 h
CN1CC(C(=O)NCCc2ccn(-c3ccc(F)cc3)n2)CC1=O (centres undefined) | -9.34%
c1cc(CCN2CCCC2CN2CCCC2)ccn1 (centres undefined) | 30%
CSCC1CCCN1CCc1ccncc1 (centres undefined) | 27.5%
Cc1ncc2c(n1)CN(CC(=O)N1CCc3sccc3C1)CC2 | -1.15%
CCc1ncc2c(n1)CN(CC(=O)N1CCc3sccc3C1)CC2 | -9%
COc1cc(C(C)NCc2scnc2C)ccc1SC(F)F (centres undefined) | -9.67%
O=C(CCN1CCc2cncnc2C1)N1CCc2sccc2C1 | -1.14%
CC(C)CC(C)N(C)Cc1nnc(-c2ccco2)o1 (centres undefined) | 31.7%
COCc1ccc(C(=O)N2CCCN(C(=O)OCC(C)C)CC2)cc1 | 19%
Cc1cc(C2CCCN(C(=O)c3ccc(OCC4CC4)nc3)C2)n[nH]1 (centres undefined) | -4.64%
Cc1cc(Cl)ccc1NCC(=O)Nc1cc(C(C)(C)C)no1 | -6.23%
CCCC(C)N(C)Cc1nnc(-c2ccco2)o1 (centres undefined) | 1.45%
CCOC(=O)NCCC(=O)NCc1ccc(Oc2ccc(F)cc2)nc1 | 1.62%
CCc1noc(C)c1C(=O)NCc1ccccn1 | -0.245%
CCOC(=O)NCCC(=O)NCc1ccc(Oc2cccc(F)c2)nc1 | -3.11%
CC(NC(=O)CCc1nc(-c2nnc[nH]2)no1)c1ccc(F)cc1F (centres undefined) | 4.47%
CN(C)c1cc(C(=O)Nc2ccccc2C(=O)NC(C)(C)C)ccn1 | -2.3%
CCNC(=O)Cc1ccc(NC(=O)NC(CC)CC)cc1 | 1.05%
Cn1c(C2CCCN2C(=O)CN2CSCC2=O)nc2ccccc21 (centres undefined) | -5.23%
CC(C)COC(=O)N1CCCN(C(=O)c2ccnc(N(C)C)c2)CC1 | 1.08%
Cc1nc2cc(=O)[nH]n2c(C)c1CC(=O)Nc1cn[nH]c1 | -2.66%

Structure (SMILES) | cytotoxicity at 70.5 h
CC(NC1(CNC(=O)CC2CCCC2)CCOCC1)c1ccccc1 (centres undefined) | -6.24%
Cc1nc2cc(=O)[nH]n2c(C)c1CNC(=O)c1cnn(C(C)(C)C)c1 | 4.01%
CCOC(=O)c1nnc2ccccc2c1N1CCOC(C)(C)C1 | 16.1%
O=C(NCc1ccc(CN2CCCC2)cc1)NCc1ccon1 | -3.38%
CSc1ccc(C(CC(=O)O)NC(=O)c2cc(C)on2)cc1 (centres undefined) | 0.955%
CC(NC1(CNC(=O)OC(C)(C)C)CCOCC1)c1ccccc1 (centres undefined) | -5.89%
Cc1cn2c(n1)CCC(NS(=O)(=O)c1cc(C)sc1C)C2 (centres undefined) | -3.85%
CC(=O)N1CCN(CCNS(=O)(=O)c2cccc(F)c2)CC1 | -0.607%
O=C(C1CCCCC1)N1CCC2(CC1)OCCO2 | -5.09%
Cc1ncsc1C(=O)Nc1ccccn1 | -6.03%
CC(=O)N1CCN(CCNS(=O)(=O)c2cc(F)cc(F)c2)CC1 | -0.303%
CC(C)COCCC(=O)NCCC(=O)N1CCN(c2ccccn2)CC1 | -2.77%
Cc1nc(C2(NCC(=O)NC(=O)Nc3ccccc3)CCCCC2)no1 | -0.595%
Cc1nc(C2(NCC(=O)NCc3cccs3)CCCCC2)no1 | -2.14%
Cc1ccc(C(=O)N(C)Cc2ccc(Br)s2)c(=O)[nH]1 | 2.28%
CC(C)Cc1cc(C(=O)NC(C)C)[nH]n1 | -4.46%
NC(=O)C(CNC(=O)CCc1ccccc1)Cc1ccc(F)cc1 (centres undefined) | -2.33%
CC(=O)N1CCN(CCNS(=O)(=O)c2c(F)cccc2F)CC1 | -5.97%
CCc1ccc(C(=O)N2CCC(c3nncn3CC)CC2)o1 | -6.22%
O=C(NCCCNC(=O)c1ccccc1)Nc1ccc(F)cc1F | -4.28%
CCn1cnnc1C1CCN(C(=O)c2ccc3c(c2)nnn3C)CC1 | 22.3%
